# ChEMBL document CHEMBL1153323, “Design, synthesis, and evaluation of peptidomimetics containing Freidinger lactams as STAT3 inhibitors” (Bioorg Med Chem Lett, 2009)
# Where a SMILES comes first, the peptide text is derived from it. [ ]: non-standard residue; d: D form. The star is where a group is joined. pY = N[C@@H](Cc1ccc(OP(=O)(O)O)cc1)C(=O)O; Cbz = O=C(OCc1ccccc1)*; NHBn = c1ccc(CN*)cc1
# Target: Signal transducer and activator of transcription 3 (Homo sapiens, UniProt P40763)
# Experiment: Displacement of fluorescent tagged beta-(Ala)-beta-(Ala)-G-pYLPQTV from human recombinant STAT3 by fluorescence polarization assay
# Chain of Signal transducer and activator of transcription 3 (P40763 whole entry): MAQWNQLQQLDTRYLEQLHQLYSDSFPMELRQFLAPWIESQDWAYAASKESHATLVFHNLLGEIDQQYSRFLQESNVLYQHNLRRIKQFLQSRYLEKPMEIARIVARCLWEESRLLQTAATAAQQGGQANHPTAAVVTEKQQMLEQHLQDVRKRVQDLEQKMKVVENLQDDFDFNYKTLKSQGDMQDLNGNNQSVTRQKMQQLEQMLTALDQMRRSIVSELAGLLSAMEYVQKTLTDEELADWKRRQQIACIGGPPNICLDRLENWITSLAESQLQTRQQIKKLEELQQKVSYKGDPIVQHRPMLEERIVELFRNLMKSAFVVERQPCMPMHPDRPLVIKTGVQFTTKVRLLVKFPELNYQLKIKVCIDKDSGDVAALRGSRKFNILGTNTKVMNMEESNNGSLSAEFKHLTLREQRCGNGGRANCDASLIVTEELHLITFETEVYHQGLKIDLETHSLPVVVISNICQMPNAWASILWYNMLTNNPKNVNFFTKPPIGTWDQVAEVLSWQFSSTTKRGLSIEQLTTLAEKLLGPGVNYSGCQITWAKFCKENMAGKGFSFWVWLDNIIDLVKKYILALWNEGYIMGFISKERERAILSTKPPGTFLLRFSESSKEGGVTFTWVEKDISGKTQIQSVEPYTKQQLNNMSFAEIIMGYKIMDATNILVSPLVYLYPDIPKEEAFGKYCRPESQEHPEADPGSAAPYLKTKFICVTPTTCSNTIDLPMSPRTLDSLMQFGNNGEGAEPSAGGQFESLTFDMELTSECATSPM
row,SMILES,Ki
1,NC(=O)CC[C@H](NC(=O)CN1CCCC[C@H](NC(=O)[C@H](Cc2ccc(OP(=O)(O)O)cc2)NC(=O)OCc2ccccc2)C1=O)C(=O)NCc1ccccc1,190 nM
2,NC(=O)CC[C@H](NC(=O)CN1CCC[C@H](NC(=O)[C@H](Cc2ccc(OP(=O)(O)O)cc2)NC(=O)OCc2ccccc2)C1=O)C(=O)NCc1ccccc1,3130 nM
3,CC(C)C[C@H](NC(=O)[C@H](Cc1ccc(OP(=O)(O)O)cc1)NC(=O)OCc1ccccc1)C(=O)N1CCC[C@H]1C(=O)N[C@@H](CCC(N)=O)C(=O)NCc1ccccc1 (Cbz-[pY]LPQ-NHBn),350 nM
